For assay [1], the target named is T1, MAS (Homo sapiens, UniProt P04201).
T1 construct: expressed in transfected cells
T1 sequence (P04201 1-325): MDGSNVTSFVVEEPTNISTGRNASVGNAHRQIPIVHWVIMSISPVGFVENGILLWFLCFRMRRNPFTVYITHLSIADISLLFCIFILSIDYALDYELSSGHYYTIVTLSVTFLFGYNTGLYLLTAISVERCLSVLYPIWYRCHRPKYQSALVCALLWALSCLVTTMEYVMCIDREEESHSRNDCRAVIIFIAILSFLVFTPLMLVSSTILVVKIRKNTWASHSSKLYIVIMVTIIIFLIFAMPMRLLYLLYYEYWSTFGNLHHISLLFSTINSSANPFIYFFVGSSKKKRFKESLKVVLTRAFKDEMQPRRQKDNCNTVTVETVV
Kind of assay: Calcium re-stimulation and antagonism assays, MAS expressing stable cells. Type of assay: cell-based. The procedure:
The assay was performed using FLIPR Calcium 5 assay kit (Molecular Devices, Sunnyvale, CA). For calcium measurements, cells at a density of 125,000 cells/well in 100 µl medium were seeded onto a 96-well clear bottom black cell culture plate that was pre-coated with poly-L-lysine. In the calcium assays the cell density of 125,000 cells/well was consistently maintained to minimize variability between independent experiments. The cells were seeded in induction media to induce MAS expression or in complete media for negative controls. The plate was maintained in a cell culture incubator for 26–28 h. The cells were then serum starved for 2 h by replacing the medium with 100 µl of serum free DMEM. In the case of pre-treatment with pan-inhibitor of G protein signaling, BIM-46187, the cells were initially serum starved for 1 h by replacing the medium with 50 µl of serum free DMEM. After 1 h, 50 µl of BIM-46187 was added to the cells to a final concentration of 25 µM and treated for another 1 h. Following serum starvation, 100 µl of calcium sensitive dye along with 2x (2.5 mM final concentration) probenecid (Life Technologies, Grand Island, NY) was added to the cells. During this step, AR-inverse agonist or BIM-46187 was also added at desired concentrations to the calcium dye preparation in case of experiments where cells were pre-treated with these inhibitors. The cells were maintained for one hour in the cell culture incubator. […] The instrument was programmed in FLEX mode to add ligands (50 µl at 5x concentration) to the cells and to monitor the fluorescence before and after adding the ligands. […]
For re-stimulation assays, the data is expressed as the percentage of maximum agonist stimulation to allow for ready comparison between individual experiments. For the IP1 assay, a standard curve was generated using the 4-Parameter logistic equation fit of the HTRF readings of IP1 standards using the SoftMax Pro software. […] In the luciferase assay, the luminescence measurements (RLU) are presented as a ratio of firefly to renilla luciferase activity. […]

Assay [2] addresses T1, MAS. Kind of assay: HTRF IP1 assay, induced myc-tagged WT MAS HEK293 stable cell line. Type of assay: cell-based. (Time-resolved FRET reads energy transfer from a long-lived donor to a nearby acceptor.)
Method: IP1 levels in the cells were measured using the IP-One Tb kit (Cisbio US, Bedford, MA). For the assay, cells were seeded onto a 384-well low volume white cell culture plate at a density of 25,000 cells/well in 20 µl of induction or complete medium. In the IP1 assays the cell density of 25,000 cells/well was consistently maintained to minimize variability between independent experiments. The cells were maintained in a cell culture incubator for 26–28 h. The cells were then serum starved for 2 h by replacing the medium with 7 µl of serum free DMEM/F-12. During this step, 7 µl of serum free DMEM/F-12 was also added to the wells to which IP1 standards would be subsequently added. […] The cells were then placed in the cell culture incubator for 4 h. Later, 3 µl each of d2-labeled IP1 and anti-IP1 cryptate Tb conjugated antibody diluted in lysis buffer was added sequentially to all the wells and the plate was incubated overnight in the dark at room temperature. Time-resolved ratiometric fluorescence emission measurements at 665 nm and 620 nm were taken after excitation at 343 nm on FlexStation 3 instrument.
For the IP1 assay, a standard curve was generated using the 4-Parameter logistic equation fit of the HTRF readings of IP1 standards using the SoftMax Pro software. The IP1 concentrations in the experiments were extrapolated based on the standard curve parameters. […] For all the assays, the EC50 and IC50 values were estimated by fitting the data to a three parameter dose response using GraphPad Prism software (GraphPad, La Jolla, CA).

Structures are written as SMILES.

For orientation: EC50 means the concentration giving half of the maximal effect. A high value points to weaker potency. For `COc1cc([N+](=O)[O-])ccc1S(=O)(=O)N1CC(CN2CCN(c3ccccn3)CC2)C(c2cccc(F)c2)C1` (stereo not shown) [AR-agonist], on MAS [1] (re-stimulation assay, second ligand at 600 s), the “Response to second agonist (NPFF or AR-agonist) after first stimulation with the ligand” value was “did not respond”. The same compound returned an EC50 on MAS [2] (WT MAS, induced cells) of 1300 ± 300 nM. The “Fold over WT, EC50 IP1 assay” value on MAS [2] (WT construct) amounted to 1.
As a reminder, the IC50 is the concentration at which inhibition is half-maximal. Low values mean greater potency in that assay, high ones weaker potency in that assay. Consider `C=CCCN1CCC2(CC1)CN(C(=O)c1c(F)cccc1F)c1ccc(Cl)cc12` [AR-inverse], for which the “Inhibition of NPFF calcium response” value on MAS [1] (first ligand at 25 µM, then NPFF) is “completely inhibited”. Further, at MAS [1] (pre-treatment at 25 µM), the “Inhibition of AR-agonist calcium dose-response by pre-treatment” value is on record as “complete inhibition”. The compound also came in with a 50% inhibitory concentration (IC50) against MAS [2] (WT MAS, induced cells, inhibition of constitutive activity) of 700 ± 100 nM. For the same compound, the “Fold over WT, IC50 IP1 assay” value at MAS [2] (WT construct) is given as 1.

The values above are taken from publication PMC4113456, “Atypical Signaling and Functional Desensitization Response of MAS Receptor to Peptide Ligands” (PLoS ONE, 2014).
